According to paper PMC8371461 (Frontiers in Pharmacology, 2021):
Like-named read-outs stand apart in the source and are kept apart here.

Legend:
PRKR = target: T1, PRKR (Homo sapiens, UniProt P19525); experiment: kinome scan; type: binding; conditions: 10 µM
T1 construct: purchased DiscoverX (KINOMEscan)

[1] = target: T2, ABL1(M351T)-phosphorylated (Homo sapiens, UniProt P00519, M351T); experiment: kinome scan; type: binding; conditions: 10 µM
T2 construct: purchased DiscoverX (KINOMEscan)

ABL1-nonphosphorylated = target: T3, ABL1-nonphosphorylated (Homo sapiens, UniProt P00519); experiment: kinome scan; type: binding; conditions: 10 µM
T3 construct: purchased DiscoverX (KINOMEscan)

FER = target: T4, FER (Homo sapiens, UniProt P16591); experiment: kinome scan; type: binding; conditions: 10 µM
T4 construct: purchased DiscoverX (KINOMEscan)

PIK3CG = target: T5, PIK3CG (Homo sapiens, UniProt P48736); experiment: kinome scan; type: binding
T5 construct: purchased DiscoverX (KINOMEscan)

PDGFRA = target: T6, PDGFRA (Homo sapiens, UniProt P16234); experiment: kinome scan; type: binding; conditions: 10 µM
T6 construct: purchased DiscoverX (KINOMEscan)

KIT(L576P) = target: T7, KIT(L576P) (Homo sapiens, UniProt P10721, L576P); experiment: kinome scan; type: binding; conditions: 10 µM
T7 construct: purchased DiscoverX (KINOMEscan)

AXL = target: T8, AXL (Homo sapiens, UniProt P30530); experiment: kinome scan; type: binding; conditions: 10 µM
T8 construct: purchased DiscoverX (KINOMEscan)

EGFR(G719S) = target: T9, EGFR(G719S) (Homo sapiens, UniProt P00533, G719S); experiment: kinome scan; type: binding; conditions: 10 µM
T9 construct: purchased DiscoverX (KINOMEscan)

MAP3K3 = target: T10, MAP3K3 (Homo sapiens, UniProt Q99759); experiment: kinome scan; type: binding; conditions: 10 µM
T10 construct: purchased DiscoverX (KINOMEscan)

EPHB6 = target: T11, EPHB6 (Homo sapiens, UniProt O15197); experiment: kinome scan; type: binding; conditions: 10 µM
T11 construct: purchased DiscoverX (KINOMEscan)

EPHA4 = target: T12, EPHA4 (Homo sapiens, UniProt P54764); experiment: kinome scan; type: binding; conditions: 10 µM
T12 construct: purchased DiscoverX (KINOMEscan)

PRKCE = target: T13, PRKCE (Homo sapiens, UniProt Q02156); experiment: kinome scan; type: binding; conditions: 10 µM
T13 construct: purchased DiscoverX (KINOMEscan)

LOK = target: T14, LOK (Homo sapiens, UniProt O94804); experiment: kinome scan; type: binding; conditions: 10 µM
T14 construct: purchased DiscoverX (KINOMEscan)

ERBB4 = target: T15, ERBB4 (Homo sapiens, UniProt Q15303); experiment: kinome scan; type: binding; conditions: 10 µM
T15 construct: purchased DiscoverX (KINOMEscan)

CSNK1A1 = target: T16, CSNK1A1 (Homo sapiens, UniProt P48729); experiment: kinome scan; type: binding; conditions: 10 µM
T16 construct: purchased DiscoverX (KINOMEscan)

ABL1-phosphorylated = target: T17, ABL1-phosphorylated (Homo sapiens, UniProt P00519); experiment: kinome scan; type: binding; conditions: 10 µM
T17 construct: purchased DiscoverX (KINOMEscan)

YANK3 = target: T18, YANK3 (Homo sapiens, UniProt Q86UX6); experiment: kinome scan; type: binding; conditions: 10 µM
T18 construct: purchased DiscoverX (KINOMEscan)

FLT3(K663Q) = target: T19, FLT3(K663Q) (Homo sapiens, UniProt P36888, K663Q); experiment: kinome scan; type: binding
T19 construct: purchased DiscoverX (KINOMEscan)

MYO3B = target: T20, MYO3B (Homo sapiens, UniProt Q8WXR4); experiment: kinome scan; type: binding; conditions: 10 µM
T20 construct: purchased DiscoverX (KINOMEscan)

EGFR = target: T21, EGFR (Homo sapiens, UniProt P00533); experiment: kinome scan; type: binding; conditions: 10 µM
T21 construct: purchased DiscoverX (KINOMEscan)

CDK7 = target: T22, CDK7 (Homo sapiens, UniProt P50613); experiment: kinome scan; type: binding; conditions: 10 µM
T22 construct: purchased DiscoverX (KINOMEscan)

QSK = target: T23, QSK (Homo sapiens, UniProt Q9Y2K2); experiment: kinome scan; type: binding; conditions: 10 µM
T23 construct: purchased DiscoverX (KINOMEscan)

[2] = test system: Euchromatic histone-lysine N-methyltransferase 2; design: method as in PubChem Bioassay ID 504,332; conditions: reported activity, data mining; ref PubChem Bioassay ID 504,332; cited from earlier work
HUNK = target: T24, HUNK (Homo sapiens, UniProt P57058); experiment: kinome scan; type: binding; conditions: 10 µM
T24 construct: purchased DiscoverX (KINOMEscan)

PLK4 = target: T25, PLK4 (Homo sapiens, UniProt O00444); experiment: kinome scan; type: binding; conditions: 10 µM
T25 construct: purchased DiscoverX (KINOMEscan)

CDK3 = target: T26, CDK3 (Homo sapiens, UniProt Q00526); experiment: kinome scan; type: binding; conditions: 10 µM
T26 construct: purchased DiscoverX (KINOMEscan)

MAST1 = target: T27, MAST1 (Homo sapiens, UniProt Q9Y2H9); experiment: kinome scan; type: binding; conditions: 10 µM
T27 construct: purchased DiscoverX (KINOMEscan)

MKNK2 = target: T28, MKNK2 (Homo sapiens, UniProt Q9HBH9); experiment: kinome scan; type: binding
T28 construct: purchased DiscoverX (KINOMEscan)

WEE2 = target: T29, WEE2 (Homo sapiens, UniProt P0C1S8); experiment: kinome scan; type: binding; conditions: 10 µM
T29 construct: purchased DiscoverX (KINOMEscan)

[3] = target: T30, RPS6KA5(Kin.Dom.2-C-terminal) (Homo sapiens, UniProt O75582); experiment: kinome scan; type: binding; conditions: 10 µM
T30 construct: RPS6KA5(Kin.Dom.2-C-terminal); purchased DiscoverX (KINOMEscan)

PIP5K2B = target: T31, PIP5K2B (Homo sapiens, UniProt P78356); experiment: kinome scan; type: binding; conditions: 10 µM
T31 construct: purchased DiscoverX (KINOMEscan)

[4] = target: Proto-oncogen Ser/Thr kinase PIM1 (PIM1) (Homo sapiens, UniProt P11309); experiment: Dundee activity test; type: biochemical
Text: (§1) In silico inverse screening is a ligand-driven methodology aiming at identifying a specific target for a given ligand. […] Table 2 contains for each kinase the name and acronym, the PDB identifier of the best-ranked structure, the ranking position in percent, the heavy atom RMSD of the co-crystallized ligand as a control, and the experimental confirmation from the kinome scan by Ambit Biosciences (http://www.ambitbio.com/) performed at the University of Dundee according to a previously described procedure ([Bain et al., 2003]).

[5] = target: Mitogen-activating protein kinase interacting Ser/Thr kinase (MNK2) (Homo sapiens, UniProt Q9HBH9); experiment: Dundee activity test; type: biochemical
Text: as §1

NEK6 = target: T32, NEK6 (Homo sapiens, UniProt Q9HC98); experiment: kinome scan; type: binding; conditions: 10 µM
T32 construct: purchased DiscoverX (KINOMEscan)

MAPKAPK5 = target: T33, MAPKAPK5 (Homo sapiens, UniProt Q8IW41); experiment: kinome scan; type: binding; conditions: 10 µM
T33 construct: purchased DiscoverX (KINOMEscan)

AMPK-alpha2 = target: T34, AMPK-alpha2 (Homo sapiens, UniProt P54646); experiment: kinome scan; type: binding; conditions: 10 µM
T34 construct: purchased DiscoverX (KINOMEscan)

DDR2 = target: T35, DDR2 (Homo sapiens, UniProt Q16832); experiment: kinome scan; type: binding; conditions: 10 µM
T35 construct: purchased DiscoverX (KINOMEscan)

T28 sequence (Q9HBH9 whole entry): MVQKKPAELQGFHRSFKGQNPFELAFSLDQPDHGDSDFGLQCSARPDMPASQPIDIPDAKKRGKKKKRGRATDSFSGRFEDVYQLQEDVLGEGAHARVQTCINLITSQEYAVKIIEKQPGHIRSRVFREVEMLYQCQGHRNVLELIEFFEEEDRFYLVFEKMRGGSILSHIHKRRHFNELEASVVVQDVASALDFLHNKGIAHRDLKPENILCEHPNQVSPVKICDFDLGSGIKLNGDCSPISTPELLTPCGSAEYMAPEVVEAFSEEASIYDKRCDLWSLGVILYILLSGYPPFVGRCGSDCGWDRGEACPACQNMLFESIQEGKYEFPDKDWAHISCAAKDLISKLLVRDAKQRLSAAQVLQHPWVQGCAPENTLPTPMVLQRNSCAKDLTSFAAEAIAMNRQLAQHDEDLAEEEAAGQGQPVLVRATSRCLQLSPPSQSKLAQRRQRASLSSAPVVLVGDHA
T5 sequence (P48736 whole entry): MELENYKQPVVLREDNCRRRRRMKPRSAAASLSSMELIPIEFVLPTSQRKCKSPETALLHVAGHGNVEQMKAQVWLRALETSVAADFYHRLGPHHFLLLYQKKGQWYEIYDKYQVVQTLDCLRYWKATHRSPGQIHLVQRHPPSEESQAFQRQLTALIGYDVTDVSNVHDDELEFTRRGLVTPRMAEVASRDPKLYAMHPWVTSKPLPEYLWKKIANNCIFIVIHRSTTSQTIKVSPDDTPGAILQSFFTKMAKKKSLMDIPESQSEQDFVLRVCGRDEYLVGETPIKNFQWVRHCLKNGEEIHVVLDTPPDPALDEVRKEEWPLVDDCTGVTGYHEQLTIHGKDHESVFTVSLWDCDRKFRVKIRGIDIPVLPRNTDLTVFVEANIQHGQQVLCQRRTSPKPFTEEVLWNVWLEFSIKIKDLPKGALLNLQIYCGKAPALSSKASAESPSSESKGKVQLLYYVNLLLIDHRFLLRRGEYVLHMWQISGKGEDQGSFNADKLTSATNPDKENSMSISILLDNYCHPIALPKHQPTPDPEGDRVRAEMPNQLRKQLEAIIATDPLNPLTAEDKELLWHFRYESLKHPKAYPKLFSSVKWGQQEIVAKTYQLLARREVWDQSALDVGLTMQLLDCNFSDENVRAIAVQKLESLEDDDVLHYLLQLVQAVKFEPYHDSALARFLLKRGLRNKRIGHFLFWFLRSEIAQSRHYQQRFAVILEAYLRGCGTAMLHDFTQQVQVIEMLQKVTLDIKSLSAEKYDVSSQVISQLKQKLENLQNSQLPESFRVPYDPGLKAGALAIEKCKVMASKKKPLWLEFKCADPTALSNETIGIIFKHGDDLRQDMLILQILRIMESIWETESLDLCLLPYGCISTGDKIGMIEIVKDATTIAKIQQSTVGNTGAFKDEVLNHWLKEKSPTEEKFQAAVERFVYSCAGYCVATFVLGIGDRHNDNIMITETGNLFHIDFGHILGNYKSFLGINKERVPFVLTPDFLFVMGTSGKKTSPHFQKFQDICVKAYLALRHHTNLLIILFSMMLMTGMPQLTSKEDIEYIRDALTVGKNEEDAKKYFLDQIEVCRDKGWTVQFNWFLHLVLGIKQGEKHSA
T26 sequence (Q00526 whole entry): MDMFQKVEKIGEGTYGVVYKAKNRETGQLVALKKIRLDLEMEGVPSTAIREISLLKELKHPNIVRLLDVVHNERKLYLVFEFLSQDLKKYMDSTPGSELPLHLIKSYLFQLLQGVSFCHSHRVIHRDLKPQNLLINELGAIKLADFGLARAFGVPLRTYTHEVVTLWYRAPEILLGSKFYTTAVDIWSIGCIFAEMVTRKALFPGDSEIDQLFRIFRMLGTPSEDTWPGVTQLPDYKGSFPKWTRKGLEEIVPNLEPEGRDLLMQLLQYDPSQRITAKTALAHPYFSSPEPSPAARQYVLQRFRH
T7 sequence (P10721 26-976 L576P): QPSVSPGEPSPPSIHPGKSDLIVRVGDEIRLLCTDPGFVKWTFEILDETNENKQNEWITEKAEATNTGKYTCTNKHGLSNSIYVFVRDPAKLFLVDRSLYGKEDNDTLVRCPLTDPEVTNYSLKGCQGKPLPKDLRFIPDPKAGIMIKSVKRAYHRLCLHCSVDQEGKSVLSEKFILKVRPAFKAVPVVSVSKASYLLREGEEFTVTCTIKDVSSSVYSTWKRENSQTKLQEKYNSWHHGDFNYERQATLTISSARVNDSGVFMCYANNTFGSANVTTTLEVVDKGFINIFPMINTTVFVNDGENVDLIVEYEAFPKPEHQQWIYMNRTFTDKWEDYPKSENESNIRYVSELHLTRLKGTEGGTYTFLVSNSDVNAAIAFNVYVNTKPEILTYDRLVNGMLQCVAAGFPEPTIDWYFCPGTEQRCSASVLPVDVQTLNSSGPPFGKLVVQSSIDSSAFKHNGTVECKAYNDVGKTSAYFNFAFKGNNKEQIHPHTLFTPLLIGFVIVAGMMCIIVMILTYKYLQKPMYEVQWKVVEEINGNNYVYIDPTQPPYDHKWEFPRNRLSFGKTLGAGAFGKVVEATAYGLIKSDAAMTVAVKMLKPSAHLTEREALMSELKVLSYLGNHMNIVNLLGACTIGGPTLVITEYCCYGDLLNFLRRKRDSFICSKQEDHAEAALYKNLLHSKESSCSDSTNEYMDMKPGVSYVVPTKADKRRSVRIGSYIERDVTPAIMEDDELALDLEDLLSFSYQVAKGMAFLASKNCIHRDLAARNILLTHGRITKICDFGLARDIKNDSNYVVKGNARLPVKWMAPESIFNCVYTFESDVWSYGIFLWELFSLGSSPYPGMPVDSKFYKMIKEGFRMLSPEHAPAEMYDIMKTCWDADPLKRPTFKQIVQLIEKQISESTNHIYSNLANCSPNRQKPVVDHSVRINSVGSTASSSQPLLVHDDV
T10 sequence (Q99759 whole entry): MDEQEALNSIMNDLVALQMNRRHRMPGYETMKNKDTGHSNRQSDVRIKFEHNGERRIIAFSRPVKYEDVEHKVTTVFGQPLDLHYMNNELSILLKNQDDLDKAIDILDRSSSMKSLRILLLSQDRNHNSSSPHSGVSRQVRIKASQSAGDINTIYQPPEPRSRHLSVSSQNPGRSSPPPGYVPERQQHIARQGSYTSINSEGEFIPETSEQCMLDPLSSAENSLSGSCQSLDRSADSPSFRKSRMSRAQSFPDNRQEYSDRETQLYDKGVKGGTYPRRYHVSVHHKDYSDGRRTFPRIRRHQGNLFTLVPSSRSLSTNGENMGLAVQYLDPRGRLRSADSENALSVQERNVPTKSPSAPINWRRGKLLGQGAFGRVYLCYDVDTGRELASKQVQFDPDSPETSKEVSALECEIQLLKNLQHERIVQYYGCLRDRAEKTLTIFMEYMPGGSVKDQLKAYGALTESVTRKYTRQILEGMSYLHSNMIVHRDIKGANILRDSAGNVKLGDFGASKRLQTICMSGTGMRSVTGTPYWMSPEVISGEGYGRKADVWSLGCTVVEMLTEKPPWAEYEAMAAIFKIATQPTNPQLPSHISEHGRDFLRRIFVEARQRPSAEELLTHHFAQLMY
T12 sequence (P54764 20-986): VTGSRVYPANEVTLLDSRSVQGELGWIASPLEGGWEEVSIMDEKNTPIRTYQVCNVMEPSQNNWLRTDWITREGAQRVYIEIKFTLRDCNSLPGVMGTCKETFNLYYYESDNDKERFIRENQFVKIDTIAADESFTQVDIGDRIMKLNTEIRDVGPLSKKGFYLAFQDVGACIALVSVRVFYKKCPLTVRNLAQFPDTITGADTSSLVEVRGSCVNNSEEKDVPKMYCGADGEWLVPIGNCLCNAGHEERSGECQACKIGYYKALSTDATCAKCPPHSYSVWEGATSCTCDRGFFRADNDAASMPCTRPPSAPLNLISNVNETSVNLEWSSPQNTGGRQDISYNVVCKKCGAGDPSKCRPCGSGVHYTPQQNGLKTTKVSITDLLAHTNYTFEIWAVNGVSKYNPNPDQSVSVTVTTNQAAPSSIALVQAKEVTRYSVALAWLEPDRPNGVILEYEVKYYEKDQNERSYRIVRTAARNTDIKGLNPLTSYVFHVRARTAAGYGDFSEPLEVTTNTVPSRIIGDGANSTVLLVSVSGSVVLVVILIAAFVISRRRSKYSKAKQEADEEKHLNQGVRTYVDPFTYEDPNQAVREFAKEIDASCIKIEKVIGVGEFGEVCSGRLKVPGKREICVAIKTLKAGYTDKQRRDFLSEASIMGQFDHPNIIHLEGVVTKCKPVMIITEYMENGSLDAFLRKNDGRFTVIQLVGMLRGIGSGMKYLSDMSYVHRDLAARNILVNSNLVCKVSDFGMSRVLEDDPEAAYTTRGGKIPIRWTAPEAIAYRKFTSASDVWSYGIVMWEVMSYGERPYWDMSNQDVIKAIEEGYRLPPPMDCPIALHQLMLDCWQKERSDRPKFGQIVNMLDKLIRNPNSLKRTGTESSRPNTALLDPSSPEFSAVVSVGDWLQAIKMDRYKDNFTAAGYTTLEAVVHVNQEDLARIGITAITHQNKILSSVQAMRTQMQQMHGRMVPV
T33 sequence (Q8IW41 whole entry): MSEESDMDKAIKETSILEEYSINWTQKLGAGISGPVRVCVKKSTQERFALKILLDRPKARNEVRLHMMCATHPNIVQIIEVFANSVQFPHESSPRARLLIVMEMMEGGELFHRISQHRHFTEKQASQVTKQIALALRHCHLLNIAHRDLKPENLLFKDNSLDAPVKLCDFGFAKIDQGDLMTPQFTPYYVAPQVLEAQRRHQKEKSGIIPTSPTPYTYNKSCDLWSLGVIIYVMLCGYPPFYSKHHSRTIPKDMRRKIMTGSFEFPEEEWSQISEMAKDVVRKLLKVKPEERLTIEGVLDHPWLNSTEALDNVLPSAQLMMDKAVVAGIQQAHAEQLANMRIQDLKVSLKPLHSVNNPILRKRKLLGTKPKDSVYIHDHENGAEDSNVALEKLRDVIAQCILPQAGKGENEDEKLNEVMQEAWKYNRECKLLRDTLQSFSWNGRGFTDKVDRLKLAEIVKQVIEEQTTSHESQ
Sequence of Mitogen-activating protein kinase interacting Ser/Thr kinase (MNK2) (Q9HBH9 whole entry, species assumed): as the sequence (Q9HBH9 whole entry) above

SMILES: Nc1ccc(N=Nc2ccccc2)c(N)n1 [phenazopyridine, 2,6-diamino-3-(phenylazo)pyridine]
- kinase inhibition (PRKR): 86
- kinase inhibition [1]: 85
- kinase inhibition (ABL1-nonphosphorylated): 86
- kinase inhibition (FER): 100
- percent of control (remaining binding) (PIK3CG; 10 µM): 27
- remaining binding at 10 µM (PIK3CG; read-out: Kinome scan (% of control at 10 µM)): 27%
- kinase inhibition (PDGFRA): 38
- kinase inhibition (KIT(L576P)): 44
- kinase inhibition (AXL): 100
- kinase inhibition (EGFR(G719S)): 92
- kinase inhibition (MAP3K3): 89
- kinase inhibition (EPHB6): 67
- kinase inhibition (EPHA4): 86
- kinase inhibition (PRKCE): 100
- kinase inhibition (LOK): 100
- kinase inhibition (ERBB4): 78
- kinase inhibition (CSNK1A1): 85
- kinase inhibition (ABL1-phosphorylated): 67
- kinase inhibition (YANK3): 100
- remaining binding (% of control) (FLT3(K663Q); FLT3(K663Q), 10 µM): 21
- remaining binding at 10 µM (FLT3(K663Q); FLT3 as printed (Table S4: FLT3(K663Q)), read-out: % Of control): 21%
- kinase inhibition (MYO3B): 95
- remaining binding (% of control) (EGFR): 93
- kinase inhibition (CDK7): 50
- kinase inhibition (QSK): 94
- Concentration [2]: 10 µM
- kinase inhibition (HUNK): 100
- kinase inhibition (PLK4): 89
- kinase inhibition (CDK3): 100
- kinase inhibition (MAST1): 85
- remaining binding at 10 µM (MKNK2; MKNK2, read-out: % Of control): 6.6%
- remaining binding (% of control) (MKNK2; MKNK2, 10 µM): 6.6
- remaining binding at 10 µM (MKNK2; MNK2, read-out: Kinome scan (% of control at 10 µM)): 6.6%
- kinase inhibition (WEE2): 100
- kinase inhibition [3]: 100
- kinase inhibition (PIP5K2B): 97
- remaining activity at 10 µM [4]: 49%
- remaining activity at 10 µM [5]: 20%
- kinase inhibition (NEK6): 100
- kinase inhibition (MAPKAPK5): 100
- kinase inhibition (AMPK-alpha2): 84
- kinase inhibition (DDR2): 100
